Source: patent publication US20180214691A1, “NEUROMODULATION DEVICE” (GALVANI BIOELECTRONICS LIMITED, priority 2015, published 2018)
Entries after “also recorded” stand apart in the source; their conditions may differ.

Experiments:
rats = assay: Cystometrograms in the rat PGE2 model of bladder dysfunction; type: in vivo
From the text: In the following examples, two accepted animal models of bladder dysfunction were used. The first was a PGE2 (prostoglandin E2) model, in which installation of PGE2 into rats induces a hyperactive bladder response.
Animal models of bladder dysfunction need to take into account the fact that rodent (e.g. rat) urination behaviour differs from that of humans. However, the following parameters (as defined in Andersson et al. Neurourology and Urodynamics, 30: 636-646 (2011), which is incorporated herein by reference) are accepted measures against which therapeutic interventions can be assessed (adapted from Andersson et al.): • (a) Baseline pressure: minimum pressure between two micturitions. This parameter is important as an internal control for the procedure. • (b) Intermicturition pressure: mean pressure between two micturitions. The IMP is related to the occurrence of non-voiding contractions (NVCs). The more frequent and with higher amplitude the NVCs, the higher the IMP will be. • (c) Threshold pressure: intravesical pressure immediately before micturition. • (d) Maximum pressure: maximum bladder pressure during a micturition cycle. Also known as peak pressure, maximum voiding pressure, or maximum intravesical pressure. It should be noted that this pressure is not identical with the micturition pressure. The true micturition pressure is the pressure at which fluid starts to flow. • (e) Spontaneous activity (SA) or mean intermicturition oscillatory pressure: intermicturition pressure minus baseline pressure. This parameter is an approximate index of spontaneous bladder contractions between micturitions. SA will increase if there are frequent NVCs between micturitions. • (f) Non-voiding contractions (NVCs): defined as increases in intravesical pressure during cystometry, not associated with release of fluid. […] Since threshold pressure is the pressure at onset of micturition, subtraction of baseline pressure from threshold pressure gives the pressure variation between micturitions. • (l) Voiding efficiency: the voided volume expressed as a percentage of bladder capacity (i.e. voided volume/bladder capacity*100) • (m) External urethral sphincter electromyography: electrodes are placed into the external urethral sphincter and electromyography is recorded during bladder filling and voiding. A number of the parameters above were measured for both PGE2 and SHR rats.
A PE-90 polyethylene catheter was inserted into the bladder lumen through a small incision in the apex of the bladder dome. The bladder catheter was connected an infusion pump and a pressure transducer to measure bladder pressure. Additionally, two PFA-coated platinum-iridium wires (0.0055 inch diameter) were bilaterally inserted percutaneously into the external urethral sphincter (EUS) to record EUS EMG. Alternatively, a bipolar paddle electrode was placed intra-abdominally between the external urethral sphincter (EUS) and pubic symphysis (platinum-iridium contacts facing the urethra) to record EUS EMG.
At the start of an experiment, the bladder was continuously filled with physiological saline at room temperature using an infusion pump with an open urethra for 45 minutes to allow recovery post-surgery. The bladder was subsequently emptied, and CMG's were recorded. A single CMG event was characterized by a quiet period, a filling period, and a voiding period at the end of the voiding event, the infusion pump was turned off. The bladder was then emptied and subsequent CMG's were conducted.
PGE2: Control CMG's were conducted under saline infusion. After 2-3 subsequent control CMG events, the bladder was then infused continuously with PGE2 solution for 1 hour to allow for the bladder to reach drug related steady state. Multiple CMG's were then taken.
CMG parameters recorded were previously described by Andersson et al. as outlined above in example 1: model validation. […]

cats = assay: Cat PGE2 model of bladder dysfunction; type: in vivo; details: PGE2 cats versus controls (each cat before PGE2 installation is its own control); N=3
From the text: Pelvic nerve stimulation is also effective in other models of OAB.

CCCCC[C@H](O)/C=C/[C@H]1[C@H](O)CC(=O)[C@@H]1C/C=C\CCCC(=O)O [PGE2, prostoglandin E2]
NVC duration (rats; PGE2 rats versus controls): decreased; also recorded: reduction
bladder capacity (rats; PGE2 rats versus controls): reduction
maximum bladder pressure (rats; PGE2 rats versus controls): reduction
threshold bladder pressure (rats; PGE2 rats versus controls): reduction
Δbladder pressure (threshold minus baseline bladder pressure) (rats; PGE2 rats versus controls): reduction
voiding efficiency (rats; PGE2 rats versus controls (each rat before PGE2 installation is its own control), bladder infused with PGE2 solution for 1 hour): decreased voiding efficiency; also recorded: statistically non-significant reduction
external urethral sphincter (EUS) EMG activity (rats; PGE2 rats versus controls, filling and voiding phases of a CMG event): abnormal; also recorded: increase
non-voiding contraction (NVC) magnitude (bladder pressure area under the curve) (rats; PGE2 rats versus controls, filling phase): decreased magnitude; also recorded: reduction
bladder capacity (cats): dose dependent reduction
